Earlier results as cited in PMC2884396 (Journal of medicinal chemistry, 2010).

Tests used:
androgen receptor (AR) = settings: ref [24]-[27]
[1] = test system: glucocorticoid receptor (GR); settings: ref [24]-[27]

Structure (SMILES): Cn1c(C#N)ccc1-c1ccc2c(c1)C(C)(C)OC(=S)N2 [Tanaproget (1), Tanaproget]
- affinity for AR (androgen receptor (AR)): very low affinity
- affinity for GR [1]: very low affinity
